The values below come from patent publication US10913932B2, “Maturation of mammalian hepatocytes” (Takara Bio Europe AB, priority 2015, dated 2021).

Data set [1] concerns ChiPSC4-derived hepatocytes. Kind of data set: CYP activity assay, Example 4, basic protocol B. As to conditions: single compounds 0.2-5 μM or combinations, from day 21 onwards, Collagen I-Fibronectin-based coating, day 29, FIG. 2 A-D. How it is done:
(§1) On day 29 and 36 of the differentiation protocol, the cell cultures are subjected to a CYP activity assay according to the following protocol: Cells are washed twice with warm Williams's medium E w/o phenol red (+0.1% PEST). Then CYP activity assay, consisting of warm Williams medium E w/o phenol red (+0.1% PEST), 2 mM L-Glutamine, 25 mM HEPES, 10 μM Phenacetin (model substrate for CYP1A), 10 μM Bupropion (model substrate for 2B6), 10 μM Diclofenac (model substrate for CYP2C9), 10 μM Bufuralol (model substrate for 2D6), and 5 μM Midazolam (model substrate for CYP3A), is added to the cells (e.g. 110 μl/cm^2) and incubated for 16 hr at 37° C. Then 100 μl of the supernatant is transferred into a 96 well plate which is sealed with a tight seal tape and stored at −80° C. until LC/MS-analysis of metabolite formation: Acetaminophen (Paracetamol) for CYP1A, OH-Bupropion for CYP2B6, OH-Diclofenac for CYP2C9, OH-Bufuralol for CYP2D6, and OH-Midazolam for CYP3A. […]
On day 29 of the differentiation protocol, the cell cultures are subjected to a CYP activity assay according to the protocol described in Example 3. In some experiments, 50 μM Mephenytoin (model substrate for 2C19) was included additionally to the substrates mentioned above and then the formation of the metabolite OH-Mephenytoin was measured by LC/MS in order to determine CYP2C19 activity.

Data set [2] has as its system hiPS cell-derived hepatocytes. The data set is described as follows: CYP activity assay (LC/MS metabolite formation), Example 3, basic protocol A. As to conditions: single compounds, 0.2-50 μM, from day 21 onwards, Fibronectin-based coating, day 29 and 36, FIG. 1. Here is the method: Following the basic protocol A, hiPS cell derived hepatocytes cultured on a Fibronectin-based coating were treated with 0.5 or 5 μM 10Z-Heptadecenoic acid, 0.5 or 5 μM Arachidonic acid, 5 μM Calcifediol, 5 μM Calcitriol, 0.2 or 0.5 μM Cholecalciferol, 5 or 50 μM CGP 52608, 0.5 or 5 μM Docosahexaenoic acid, 0.5, 1.25, 2.5, 5, or 10 μM PP1, 0.5 or 5 μM PP2, 0.5 or 5 μM D-erythro-Sphingosine, or 0.5 or 5 μM Tetradecanoic acid from day 21 of the differentiation protocol and onwards (FIG. 1).
as §1, with “C.” for “C. Then 100 μl of the supernatant is transferred into a 96 well plate which is sealed with a tight seal tape and stored at −80° C. until LC/MS-analysis of metabolite formation: Acetaminophen (Paracetamol) for CYP1A, OH-Bupropion for CYP2B6, OH-Diclofenac for CYP2C9, OH-Bufuralol for CYP2D6, and OH-Midazolam for CYP3A.”

The test system of data set [3] is OATP1B1. Kind of data set: OATP1B1 mRNA expression levels. The format is cell-based, human. As to conditions: protocol B plus compound compared to protocol A; day 36; protocol B alone also increases; FIG. 2 F.
Procedure: Following the basic protocol B, ChiPSC4-derived hepatocytes cultured on a Collagen I-Fibronectin-based coating were treated with 0.5 μM 10Z-Heptadecenoic acid, 0.5 μM Arachidonic acid, 0.5 μM Calcitriol, 5 μM CGP 52608, 0.2 μM Cholecalciferol, 5 μM PP1, 0.5 μM D-erythro-Sphingosine, 0.2 μM 13 cis-RA, 0.5 μM L-erythro MAPP, 0.5 μM PAF C16, 0.5 μM C16 Ceramide, or different combinations of these compounds from day 21 of the differentiation protocol and onwards (FIG. 2).

In the case of `CC1=C(/C=C/C(C)=C/C=C/C(C)=C\C(=O)O)C(C)(C)CCC1` [13 cis-RA, 13-cis-retinoic acid], the CYP activity levels entry in data set [1] is listed as “increase CYP activity levels”.
On to `C=C1CC[C@H](O)C/C1=C/C=C1\CCC[C@]2(C)[C@@H]([C@H](C)CCCC(C)C)CC[C@@H]12` [Cholecalciferol, cholecalciferol], for which the CYP activity levels entry in data set [2] and in data set [1] was “increase CYP activity levels” in each case.
As for `CCCCCC/C=C\CCCCCCCCC(=O)O` [10Z-Heptadecenoic acid, 10Z-heptadecenoic acid], the “OATP1B1 mRNA levels” value in data set [3] is given as “increase”.
Consider `CC(C)(C)n1nc(-c2ccc(Cl)cc2)c2c(N)ncnc21` [PP2, 3-(4-chlorophenyl) 1-(1,1-dimethylethyl)-1H-pyrazolo[3,4-d]pyrimidin-4-amine], for which the CYP activity levels entry in data set [2] is “increase CYP activity levels”.
